Experimental data published in patent US9133449B2, “Mutant pyrrolysyl-tRNA synthetase, and method for production of protein having non-natural amino acid integrated therein by using the same” (priority 2007, dated 2015).
Entries after “also recorded” stand apart in the source; their conditions may differ.

Experiments:
[1] = molecular target: M. mazei PylRS (wild-type) (Methanosarcina mazei, UniProt Q8PWY1); type: biochemical; conditions: 37 degrees Celsius 1 h; 0.5 M Lys; 100 mM Ac-Lys; 1 mM Boc-Lys; 1 mM Aloc-Lys; 10 mM Nic-Lys; 7 mM Nma-Lys; 3.5 mM Z-Lys; 1 mM pyrrolysine
[2] = system: GST gene with amber codon (TAG) at the 25th from N terminus, E. coli BL21 (DE3); type: cell-based; conditions: for expression of 28-kDa GST protein: mutant PylRS (Y384F) and tRNA^Pyl, 4 mM amino acid; for incorporation into a protein with wild-type PylRS: E. coli cells
Text: In order to confirm whether amber suppression (amber mutation suppression) occurs in E. coli cells, the glutathione S-transferase (GST) gene whose tyrosine codon at the 25th from N terminus was mutated to the amber codon (TAG) was cloned into a pET system plasmid. On the other hand, the wild-type and a variety of mutant PylRS genes, as well as tRNA^Pyl genes were cloned into a pACYX system plasmid (see FIG. 6). These two expression vectors were transformed to E. coli BL21 (DE3) to statically culture overnight on LB agar medium including kanamycin and ampicillin. […] Incubation was conducted overnight to induce expression before E. coli cells were harvested to detect expressed GST using SDS-PAGE. […] (SEQ ID NO: 17) (m/z=1327.72 Da) (see FIG. 10).
The same plasmid pTK2-1 as Example 1 was used for expressing PylRS mutant with double amino acid substitutions of Y306A and Y384F and tRNA^Pyl in E. coli cells. Incorporation of a lysine derivative into GST having amber codon at 25th from its N-terminus using this plasmid was performed according to the same method as Example 1. Moreover, specific incorporation of AzZLys [purchased from Shinsei Chemical Company Ltd. (Osaka)] into the amber site in GST using the same plasmid was also performed according to the same method as Example 1. Subsequently, crude extract obtained from E. coli cells in which the GST amber gene was expressed was separated with SDS-PAGE and stained. […] Furthermore, purification of GST was performed with the same method as Example 1.

[3] = system: GRB2 amber gene, HEK c-18 cell
Text: (§1) For expressing PylRS (Y306A, Y384F) mutant and tRNA^P1 in HEK c-18 cell, the system disclosed in the above-mentioned Non-Patent Document 7 was used. Likewise, the mutant gene into which the amber codon was incorporated at the cording region of lac Z gene and GRB2 gene, and the expression system thereof, as disclosed in the above-mentioned Non-Patent Document 7, were used.

[4] = system: lacZ amber gene, HEK c-18 cell
Text: as §1
First, in the animal cells, optimal concentration of AzLys for site-specific incorporation of AzLys into the protein was determined. In media containing 0, 0.01, 0.025, 0.05, 0.1, 0.25 and 0.5 mM of AzZLys, LacZ protein was expressed from the lacZ amber gene to determine the level of expression (relative value) of LacZ with coloring reaction by LacZ. […] In FIG. 17, WT represents the level of expression (relative value) of wild-type (WT) lacZ without any amber codon in the coding region.

[5] = system: GST; conditions: FITC-PP3; ca. 37 degrees Celsius for 1 hour (not at ca. 4 degrees Celsius overnight)
Method: A conjugate of fluorophore and triarylphosphine, and the purified full length GST were linked by Staudinger-Bertozzi reaction. As a conjugate, the conjugate with FITC (hereinafter referred to as FITC-PP3) (purchased from Shinsei Chemical Company Ltd.) was used. […] Linkage reaction was performed under two types of reactive conditions, i.e., at ca. 37 degrees Celsius for 1 hour (lhr) and at ca. 4 degrees Celsius overnight (O/N). Subsequently, these GST were separated by SDS-PAGE to detect fluorescence with UV light. […] As to the Staudinger-Bertozzi reaction, see the above-mentioned Non-Patent Documents 5, 6, etc.

Sequence of M. mazei PylRS (wild-type) (Q8PWY1 whole entry E444G, looked up): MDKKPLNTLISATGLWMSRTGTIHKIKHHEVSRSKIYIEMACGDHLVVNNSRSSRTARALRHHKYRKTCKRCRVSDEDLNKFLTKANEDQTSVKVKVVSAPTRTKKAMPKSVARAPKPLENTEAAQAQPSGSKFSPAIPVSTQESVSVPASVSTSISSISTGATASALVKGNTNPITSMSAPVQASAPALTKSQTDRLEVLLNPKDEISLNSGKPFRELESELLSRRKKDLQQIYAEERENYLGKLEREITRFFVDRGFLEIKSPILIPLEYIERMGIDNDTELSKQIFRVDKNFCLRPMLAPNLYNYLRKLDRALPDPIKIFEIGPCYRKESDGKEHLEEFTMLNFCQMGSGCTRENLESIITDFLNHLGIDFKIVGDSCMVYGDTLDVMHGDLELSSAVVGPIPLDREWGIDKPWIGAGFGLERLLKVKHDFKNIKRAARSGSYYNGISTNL

Compound: CC(=O)NCCCC[C@H](N)C(=O)O [Ac-Lys, N^ε-acetyl-L-lysine]
- activation of amino acid / esterification of tRNA^Pyl by wild-type PylRS [1]: esterified

Compound: C=CCOC(=O)N[C@@H](CCCCN)C(=O)O [Aloc-Lys, allyloxycarbonyl-lysine]
- activation of amino acid / esterification of tRNA^Pyl by wild-type PylRS [1]: activated at a concentration of 1 mM, as efficiently as pyrrolysine
- expression of 28-kDa GST protein [2]: expressed

Compound: [N-]=[N+]=Nc1ccc(C[C@H](N)C(=O)O)cc1 [AzF, para-azide-phenylalanine]
- Grb2 modified with fluorescence ([3]; AzFRS system, AzFRS also modified with fluorescence concurrently): modified with fluorescence

Compound: [N-]=[N+]=Nc1ccccc1COC(=O)NCCCC[C@H](N)C(=O)O [AzZLys, N^ε-Ortho-Azide-Benzyloxycarbonyl-Lysine]
- expression of the full length GST ([2]; PylRS mutant Y306A and Y384F and tRNA^Pyl, 1 mM AzZLys): detected merely in the case of the presence of 1 mM AzZLys
- suppression efficiency (LacZ expression relative to wild-type lacZ) ([4]; PylRS (Y306A, Y384F) and tRNA^Pyl, 0.05 mM AzZLys): approximately 30 % of WT
- concentration at which most efficiently incorporated into the amber site of lacZ ([4]; tested 0, 0.01, 0.025, 0.05, 0.1, 0.25 and 0.5 mM): 0.05 mM
- Grb2 protein labeled with fluorescence ([3]; PylRS (Y306A, Y384F), tRNA^Pyl, FITC-PP3): detected merely in the case of aaRS (+), Grb2 (Am), tRNA (+) and a.a. (+)
- fluorescence-modified GST [5]: detected merely in the case of the reactive condition at ca. 37 degrees Celsius for 1 hour

Compound: CC(C)(C)OC(=O)N[C@@H](CCCCN)C(=O)O [Boc-Lys, tert-butyloxycarbonyl-lysine]
- activation of amino acid / esterification of tRNA^Pyl by wild-type PylRS [1]: activated at a concentration of 1 mM, as efficiently as pyrrolysine
- expression of 28-kDa GST protein [2]: expressed
- incorporation into a protein with wild-type PylRS [2]: could not efficiently be incorporated

Compound: CNc1ccccc1C(=O)NCCCC[C@H](N)C(=O)O [Nma-Lys, N^ε-(N-methyl-anthraniloyl)-L-lysine]
- activation of amino acid / esterification of tRNA^Pyl by wild-type PylRS [1]: esterified

Compound: N[C@@H](CCCCNC(=O)OCc1ccccc1)C(=O)O [Z-Lys, N^ε-benzyloxycarbonyl-L-lysine]
- activation of amino acid / esterification of tRNA^Pyl by wild-type PylRS [1]: merely weakly activated; also recorded: esterified
- production of full length GST protein ([2]; double mutant PylRS (Y384F/Y306A) and tRNA^Pyl, 5 mM Z-Lys): produced
- incorporation into a protein with wild-type PylRS [2]: cannot be incorporated into a protein

Compound: C[C@@H]1CC=N[C@H]1C(=O)NCCCC[C@H](N)C(=O)O [pyrrolysine, N^6-[(2R,3R)-3-methyl-3,4-dihydro-2H-pyrrole-2-ylcarbonyl]-L-lysine]
- activation of amino acid / esterification of tRNA^Pyl by wild-type PylRS [1]: activates
